Measurements from patent publication EP3436445B1, “HISTONE DEMETHYLASE INHIBITORS” (Celgene Quanticel Research, Inc., priority 2016, dated 2017).

biological target: T1, FBXL11 (Homo sapiens, UniProt Q9Y2K7); assay: FBXL11 in vitro enzyme inhibition assay (AlphaScreen); type: biochemical; settings: Table 3; 0.15 nM FBXL11, H3K36me2-biotin labeled peptide
T1 construct: purchased BPS Bioscience 50102
T1 sequence (Q9Y2K7 1-1162): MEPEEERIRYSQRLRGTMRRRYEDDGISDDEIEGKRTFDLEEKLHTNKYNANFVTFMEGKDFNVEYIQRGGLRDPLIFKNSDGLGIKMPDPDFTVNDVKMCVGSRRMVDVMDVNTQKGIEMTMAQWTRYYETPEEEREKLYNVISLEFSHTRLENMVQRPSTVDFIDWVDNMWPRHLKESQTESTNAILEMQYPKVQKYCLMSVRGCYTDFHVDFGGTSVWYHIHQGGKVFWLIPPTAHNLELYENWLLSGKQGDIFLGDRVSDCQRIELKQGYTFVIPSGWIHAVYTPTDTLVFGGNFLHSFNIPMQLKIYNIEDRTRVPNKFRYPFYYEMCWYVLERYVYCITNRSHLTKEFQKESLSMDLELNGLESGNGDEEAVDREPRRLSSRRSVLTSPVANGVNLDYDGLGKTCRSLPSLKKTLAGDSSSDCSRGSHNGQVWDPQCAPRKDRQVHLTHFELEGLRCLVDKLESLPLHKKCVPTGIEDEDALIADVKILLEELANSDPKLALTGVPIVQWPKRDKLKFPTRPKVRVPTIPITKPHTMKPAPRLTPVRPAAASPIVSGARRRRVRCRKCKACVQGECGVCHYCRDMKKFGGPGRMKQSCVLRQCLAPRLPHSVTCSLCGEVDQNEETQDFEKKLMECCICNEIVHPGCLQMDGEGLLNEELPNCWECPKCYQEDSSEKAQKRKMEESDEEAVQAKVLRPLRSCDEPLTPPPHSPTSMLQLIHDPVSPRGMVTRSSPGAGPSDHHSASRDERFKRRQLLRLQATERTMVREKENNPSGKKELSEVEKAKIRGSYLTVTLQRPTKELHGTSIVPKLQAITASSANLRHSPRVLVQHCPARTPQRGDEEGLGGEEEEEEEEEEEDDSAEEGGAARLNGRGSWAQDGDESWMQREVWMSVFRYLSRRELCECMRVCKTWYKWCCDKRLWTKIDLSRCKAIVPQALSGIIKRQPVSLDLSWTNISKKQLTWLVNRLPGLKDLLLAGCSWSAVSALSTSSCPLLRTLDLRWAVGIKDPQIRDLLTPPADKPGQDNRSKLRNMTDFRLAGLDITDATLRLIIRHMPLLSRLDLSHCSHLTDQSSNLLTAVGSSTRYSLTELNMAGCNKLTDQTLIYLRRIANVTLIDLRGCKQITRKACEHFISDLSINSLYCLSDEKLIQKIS
Excerpt: This assay determines the ability of a test compound to inhibit FBXL11, FBXL10, and PHF8 demethylase activity. Baculovirus expressed FBXL11 (GenBank Accession #NM_012308, AA1-1162) was purchased from BPS Bioscience (Cat#50102). Baculovirus expressed FBXL10 (GenBank Accession #NM_032590, AA 1-650) was purchased from BPS Bioscience (Cat #50120). Baculovirus expressed PHF8 (GenBank Accession NP_055922.1) was purchased from Active Motif (Cat#31435).
The ability of test compounds to inhibit the activity of FBXL11 was determined in 384-well plate format under the following reaction conditions: 0.15 nM FBXL11, 30 nM H3K36me2-biotin labeled peptide (Anaspec cat # 64442), 0.2 µM alpha-ketoglutaric acid in assay buffer of 50 mM HEPES, pH7.3, 0.005% Brij35, 0.5 mM TCEP, 0.2 mg/ml BSA, 50 µM sodium L-ascorbate, 5 µM ammonium iron(II) sulfate. Reaction product is determined quantitatively by AlphaScreen detection after the addition of detection reagents anti-H3K36me1 antibody, AlphaScreen® Streptavidin-coated Donor beads, and AlphaScreen® Protein A Acceptor beads in 50 mM HEPES, pH7.3, 10 mM NaCl, 0.005% Brij35, 5 mM EDTA, 2 mg/ml BSA to final 10 µg/ml beads.
The assay reaction was initiated by the following: 3 µl of the mixture of 90 nM H3K36me2-biotin labeled peptide and 0.6 µM alpha-ketoglutaric acid with 3 µl of 11-point serial diluted inhibitor in 3% DMSO are added to each well of 384 well Proxiplate (Perkin Elmer), followed by the addition of 3 µl of 0.45 nM FBXL11 to initiate the reaction. The reaction mixture is incubated at room temperature for 1 hour, and terminated by the addition of 3 µl of appropriate dilution of anti H3K36me1 antibody in 50 mM HEPES, pH7.3, 10 mM NaCl, 0.005% Brij35, 5 mM EDTA, 2 mg/ml BSA. Plates will then incubated at room temperature for 40 minutes, followed by addition of 3 µl of 50 µg/ml AlphaScreen® Streptavidin-coated Donor beads and AlphaScreen® Protein A Acceptor beads in 50 mM HEPES, pH7.3, 10 mM NaCl, 0.005% Brij35, 5 mM EDTA, 2 mg/ml BSA. Plates will then be read by EnVision Multilabel Reader in AlphaScreen mode after minimum 2 hour incubation at room temperature. The AlphaScreen signal for each well is used to determine inhibition constant (IC50).

| SMILES | IC50 |
| --- | --- |
| Clc1cccc(-n2cnc(-c3cc4[nH]nnc4cn3)c2)c1 [Example 51, 1-(3-chlorophenyl)-4-{1H-[1,2,3]triazolo[4,5-c]pyridin-6-yl}-1H-imidazole] | 100 to 1000 nM |
| Clc1ccc(Cn2cnc(-c3cc4[nH]nnc4cn3)c2)cc1Cl [Example 48, 1-[(3,4-dichlorophenyl)methyl]-4-{1H-[1,2,3]triazolo[4,5-c]pyridin-6-yl}-1H-imidazole] | ≤ 100 nM |
| Clc1ccccc1Cn1cnc(-c2cc3[nH]nnc3cn2)c1 [Example 45, 1-[(2-chlorophenyl)methyl]-4-{1H-[1,2,3]triazolo[4,5-c]pyridin-6-yl}-1H-imidazole] | ≤ 100 nM |
| Clc1ccc(Cn2cnc(-c3cc4[nH]nnc4cn3)c2)cc1 [Example 47, 1-[(4-chlorophenyl)methyl]-4-{1H-[1,2,3]triazolo[4,5-c]pyridin-6-yl}-1H-imidazole] | ≤ 100 nM |
| Clc1ccc(-n2cnc(-c3cc4[nH]nnc4cn3)c2)cc1 [Example 49, 1-(4-chlorophenyl)-4-{1H-[1,2,3]triazolo[4,5-c]pyridin-6-yl}-1H-imidazole] | ≤ 100 nM |

Second part, the molecule after the results:

| IC50 | SMILES |
| --- | --- |
| ≤ 100 nM | Clc1ccccc1-n1cnc(-c2cc3[nH]nnc3cn2)c1 [Example 50, 1-(2-chlorophenyl)-4-{1H-[1,2,3]triazolo[4,5-c]pyridin-6-yl}-1H-imidazole] |
| ≤ 100 nM | Clc1cccc(Cn2cnc(-c3cc4[nH]nnc4cn3)c2)c1 [Example 46, 1-[(3-chlorophenyl)methyl]-4-{1H-[1,2,3]triazolo[4,5-c]pyridin-6-yl}-1H-imidazole] |
| ≤ 100 nM | c1ccc(Cn2cnc(-c3cc4[nH]nnc4cn3)c2)cc1 [Example 44, 1-benzyl-4-{1H-[1,2,3]triazolo[4,5-c]pyridin-6-yl}-1H-imidazole] |
